Measured values reported in patent US20240287070A1, “FUSED HETEROCYCLIC DERIVATIVES” (Janssen Sciences Ireland Unlimited Company, priority 2021, published 2024).

Assays:
[1] = system: HBV (HepG2.117 cell line, inducibly HBV producing); experiment: Anti-HBV activity, intracellular HBV DNA by real-time PCR in HepG2.117 cell line; format: cell-based, hepatitis B virus; settings: HepG2.117 cells, 3 days of treatment
Method in brief: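 Tet-off HepG2.117; HBV replication induced (no doxycycline); serial compound dilutions, 3 d; intracellular HBV DNA by real-time PCR, HBV-specific primers/probe.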

[2] = Cytotoxicity, ATPlite Luminescence Assay; format: cell-based, human; settings: human, HepG2 or HepG2.117 cells, 3-days incubation unless marked with *
Method in brief: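 HepG2/HepG2.117; compound exposure 3–4 d; viability readout = ATPlite luminescence.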

[3] = Human liver microsome stability; format: in vitro ADME; settings: 1 μM compound, NADPH 1 mM, 37° C., 0-60 min; for half-life at 1 μM: human, pooled human liver microsomes, pH 7.4, pooled human liver microsomes 0.5 mg/mL, read-out: HLM Metabolism t1/2; for HLM Metabolism t1/2: pooled human liver microsomes 0.5 mg/mL
Method in brief: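 Half-life came from elimination rate constant (negative slope of ln compound/internal standard area ratio over time), measured by cassette LC-MS after acetonitrile quench. Human liver microsome reactions, one replicate per compound, were initiated with NADPH (1 mM final) and sampled at six points up to 60 min.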

[4] = Hepatitis B virus, HepG2.117, 72 h

SMILES | EC50 [1] [µM] | CC50 at 3 days [2] [µM] | half-life at 1 μM [3] [h] | EC50 [1, 4] [µM] | HLM Metabolism t1/2 [3] [h]
CNC(=O)C(c1ccc(OC(F)F)cc1)N1C[C@@H](C)n2nc3c(c2C1=O)CN(C(=O)c1ccc(Cl)c(Cl)c1)[C@H](C)C3 (single isomer, unassigned) [Compound 23A, (R*)-2-((3R,7R)-2-(3,4-dichlorobenzoyl)-3,7-dimethyl-10-oxo-1,3,4,7,8,10-hexahydropyrido[4′,3′:3,4]pyrazolo[1,5-a]pyrazin-9(2H)-yl)-2-(4-(difluoromethoxy)phenyl)-N-methylacetamide] | 0.066 | 32.1 | 1.88 |  | 
CC(c1ccc(=O)n(C)n1)N1C[C@@H](C)n2nc3c(c2C1=O)CN(C(=O)c1ccc(Cl)c(Cl)c1)[C@H](C)C3 (single isomer, unassigned) [Compound 55A, (3R,7R)-2-(3,4-dichlorobenzoyl)-3,7-dimethyl-9-((R*)-1-(1-methyl-6-oxo-1,6-dihydropyridazin-3-yl)ethyl)-1,2,3,4,8,9-hexahydropyrido[4′,3′:3,4]pyrazolo[1,5-a]pyrazin-10(7H)-one] |  | > 50 | > 3 | 0.051 | 
CC(c1nnc(C2CC2)o1)N1C[C@@H](C)n2nc3c(c2C1=O)CN(C(=O)c1ccc(Cl)c(Cl)c1)[C@H](C)C3 (single isomer, unassigned) [Compound 44A, (3R,7R)-9-((R*)-1-(5-cyclopropyl-1,3,4-oxadiazol-2-yl)ethyl)-2-(3,4-dichlorobenzoyl)-3,7-dimethyl-1,2,3,4,8,9-hexahydropyrido[4′,3′:3,4]pyrazolo[1,5-a]pyrazin-10(7H)-one] | 0.22 | > 50 | > 3 |  | 
CC(c1ccc(N2CCCC2=O)cc1)N1C[C@@H](C)n2nc3c(c2C1=O)CN(C(=O)c1ccc(Cl)c(C#N)c1)[C@H](C)C3 (single isomer, unassigned) [Compound 9A, 2-Chloro-5-((3R,7R)-3,7-Dimethyl-10-oxo-9-((R*)-1-(4-(2-oxopyrrolidin-1-yl)phenyl)ethyl)-1,2,3,4,7,8,9,10-octahydropyrido[4′,3′:3,4]pyrazolo[1,5-a]pyrazine-2-carbonyl)benzonitrile] |  | > 50 |  | 0.022 | 0.84
C[C@@H]1Cc2nn3c(c2CN1C(=O)c1ccc(Cl)c(C#N)c1)C(=O)N([C@@H](C)c1ccc(OC(F)F)cc1)CC3 [Ref 2, reference compound] |  | > 50 | 0.63 | 0.03 | 
CC(c1ncccn1)N1C[C@@H](C)n2nc3c(c2C1=O)CN(C(=O)c1ccc(Cl)c(Cl)c1)[C@H](C)C3 (single isomer, unassigned) [Compound 39A, (3R,7R)-2-(3,4-dichlorobenzoyl)-3,7-dimethyl-9-((R*)-1-(pyrimidin-2-yl)ethyl)-1,2,3,4,8,9-hexahydropyrido[4′,3′:3,4]pyrazolo[1,5-a]pyrazin-10(7H)-one] | 0.13 | > 50 | 1.59 |  | 
CC(c1ccn(C(F)F)c(=O)c1)N1C[C@@H](C)n2nc3c(c2C1=O)CN(C(=O)c1ccc(Cl)c(C(F)(F)F)c1)[C@H](C)C3 (single isomer, unassigned) [Compound 49A, (3R,7R)-2-(4-chloro-3-(trifluoromethyl)benzoyl)-9-((R*)-1-(1-(difluoromethyl)-2-oxo-1,2-dihydropyridin-4-yl)ethyl)-3,7-dimethyl-1,2,3,4,8,9-hexahydropyrido [4′,3′:3,4]pyrazolo[1,5-a]pyrazin-10(7H)-one] | 0.041 | > 50 |  |  | 1.32
CC(c1ccn(CC(F)(F)F)n1)N1C[C@@H](C)n2nc3c(c2C1=O)CN(C(=O)c1ccc(Cl)c(C#N)c1)[C@H](C)C3 (single isomer, unassigned) [Compound 42B, 2-chloro-5-((3R,7R)-3,7-dimethyl-10-oxo-9-((S*)-1-(1-(2,2,2-trifluoroethyl)-1H-pyrazol-3-yl)ethyl)-1,2,3,4,7,8,9,10-octahydropyrido[4′,3′:3,4]pyrazolo[1,5-a]pyrazine-2-carbonyl)benzonitrile] |  | > 50 | > 3 | 0.06 | 
CC(c1cnc(C(C)(C)O)cn1)N1C[C@@H](C)n2nc3c(c2C1=O)CN(C(=O)c1ccc(Cl)c(C(F)(F)F)c1)[C@H](C)C3 (single isomer, unassigned) [Compound 41A, (3R,7R)-2-(4-chloro-3-(trifluoromethyl)benzoyl)-9-((R*)-1-(5-(2-hydroxypropan-2-yl)pyrazin-2-yl)ethyl)-3,7-dimethyl-1,2,3,4,8,9-hexahydropyrido[4′,3′:3,4]pyrazolo[1,5-a]pyrazin-10(7H)-one] | 0.076 | > 50 | > 3 |  | 
CC(c1ccc(NS(C)(=O)=O)cn1)N1C[C@@H](C)n2nc3c(c2C1=O)CN(C(=O)c1ccc(Cl)c(C(F)(F)F)c1)[C@H](C)C3 (single isomer, unassigned) [Compound 33A, N-(6-((R*)-1-((3R,7R)-2-(4-chloro-3-(trifluoromethyl)benzoyl)-3,7-dimethyl-10-oxo-1,3,4,7,8,10-hexahydropyrido[4′,3′:3,4]pyrazolo[1,5-a]pyrazin-9(2H)-yl)ethyl)pyridin-3-yl)methanesulfonamide] |  | > 50 | > 3 | 0.036 | 
CN=[S@@](C)(=O)c1ccc([C@H](C)N2C[C@@H](C)n3nc4c(c3C2=O)CN(C(=O)c2ccc(Cl)c(Cl)c2)[C@H](C)C4)cn1 (relative stereo) [Compound 29D, (3R,7R)-2-(3,4-dichlorobenzoyl)-9-((S*)-1-(6-((S*)—N,S-dimethylsulfonimidoyl)pyridin-3-yl)ethyl)-3,7-dimethyl-1,2,3,4,8,9-hexahydropyrido[4′,3′:3,4]pyrazolo[1,5-a]pyrazin-10(7H)-one] |  | > 50 | 1.25 | 0.059 | 
CC(c1ccn(CC(F)(F)F)c(=O)c1)N1C[C@@H](C)n2nc3c(c2C1=O)CN(C(=O)c1ccc(Cl)c(Cl)c1)[C@H](C)C3 (single isomer, unassigned) [Compound 51A, (3R,7R)-2-(3,4-dichlorobenzoyl)-3,7-dimethyl-9-((R*)-1-(2-oxo-1-(2,2,2-trifluoroethyl)-1,2-dihydropyridin-4-yl)ethyl)-1,2,3,4,8,9-hexahydropyrido[4′,3′:3,4]pyrazolo[1,5-a]pyrazin-10(7H)-one] | 0.06 | > 50 | > 3 |  | 
CC(c1cnc(NC2CC2)nc1)N1C[C@@H](C)n2nc3c(c2C1=O)CN(C(=O)c1ccc(Cl)c(Cl)c1)[C@H](C)C3 (single isomer, unassigned) [Compound 37A, (3R,7R)-9-((R*)-1-(2-(cyclopropylamino)pyrimidin-5-yl)ethyl)-2-(3,4-dichlorobenzoyl)-3,7-dimethyl-1,2,3,4,8,9-hexahydropyrido[4′,3′:3,4]pyrazolo[1,5-a]pyrazin-10(7H)-one] | 0.15 | > 50 |  |  | >3
CC(C)Oc1cc(C(C)N2C[C@@H](C)n3nc4c(c3C2=O)CN(C(=O)c2ccc(Cl)c(C(F)(F)F)c2)[C@H](C)C4)ccn1 (single isomer, unassigned) [Compound 48A, (3R,7R)-2-(4-chloro-3-(trifluoromethyl)benzoyl)-9-((R*)-1-(2-isopropoxypyridin-4-yl)ethyl)-3,7-dimethyl-1,2,3,4,8,9-hexahydropyrido[4′,3′:3,4]pyrazolo [1,5-a]pyrazin-10(7H)-one] |  | 22.1 | 2.22 | 0.052 | 
C[C@@H]1Cc2nn3c(c2CN1C(=O)c1ccc(Cl)c(C#N)c1)C(=O)N([C@H](C)c1ccc(OC(F)F)cc1)C[C@H]3C (relative stereo) [Compound 1C, 2-Chloro-5-((3R,7R*)-9-((R*)-1-(4-(difluoromethoxy)phenyl)ethyl)-3,7-dimethyl-10-oxo-1,2,3,4,7,8,9,10-octahydropyrido[4′,3′:3,4]pyrazolo[1,5-a]pyrazine-2-carbonyl)benzonitrile] |  | > 50 | > 3 | 0.044 | 
C[C@@H]1Cc2nn3c(c2CN1C(=O)c1ccc(Cl)c(C#N)c1)C(=O)N([C@H](C)c1ccc(OC(F)F)cc1)CC3 [Ref 1, reference compound] |  | > 12.5 | 0.583 | 0.095 | 
CC(c1cc(F)ccn1)N1C[C@@H](C)n2nc3c(c2C1=O)CN(C(=O)c1ccc(Cl)c(Cl)c1)[C@H](C)C3 (single isomer, unassigned) [Compound 32A] | 0.016 | > 50 | 1.68 |  | 
CC(c1ccc(C(F)(F)F)nc1)N1C[C@@H](C)n2nc3c(c2C1=O)CN(C(=O)c1ccc(Cl)c(C#N)c1)[C@H](C)C3 (single isomer, unassigned) [Compound 12A, 2-Chloro-5-((3R,7R)-3,7-dimethyl-10-oxo-9-((R*)-1-(6-(trifluoromethyl)pyridin-3-yl)ethyl)-1,2,3,4,7,8,9,10-octahydropyrido[4′,3′:3,4]pyrazolo[1,5-a]pyrazine-2-carbonyl)benzonitrile] | 0.6 | > 50 | > 3 |  | 
